Source: patent publication US10717716B2, “1,3,4-oxadiazole derivative compounds as histone deacetylase 6 inhibitor, and the pharmaceutical composition comprising the same” (Chong Kun Dang Pharmaceutical Corp., priority 2015, dated 2020)

Molecular target: T1, human recombinant HDAC6 (Homo sapiens, UniProt Q9UBN7)
T1 construct: purchased Calbiochem 382180
T1 sequence (Q9UBN7 1-1215): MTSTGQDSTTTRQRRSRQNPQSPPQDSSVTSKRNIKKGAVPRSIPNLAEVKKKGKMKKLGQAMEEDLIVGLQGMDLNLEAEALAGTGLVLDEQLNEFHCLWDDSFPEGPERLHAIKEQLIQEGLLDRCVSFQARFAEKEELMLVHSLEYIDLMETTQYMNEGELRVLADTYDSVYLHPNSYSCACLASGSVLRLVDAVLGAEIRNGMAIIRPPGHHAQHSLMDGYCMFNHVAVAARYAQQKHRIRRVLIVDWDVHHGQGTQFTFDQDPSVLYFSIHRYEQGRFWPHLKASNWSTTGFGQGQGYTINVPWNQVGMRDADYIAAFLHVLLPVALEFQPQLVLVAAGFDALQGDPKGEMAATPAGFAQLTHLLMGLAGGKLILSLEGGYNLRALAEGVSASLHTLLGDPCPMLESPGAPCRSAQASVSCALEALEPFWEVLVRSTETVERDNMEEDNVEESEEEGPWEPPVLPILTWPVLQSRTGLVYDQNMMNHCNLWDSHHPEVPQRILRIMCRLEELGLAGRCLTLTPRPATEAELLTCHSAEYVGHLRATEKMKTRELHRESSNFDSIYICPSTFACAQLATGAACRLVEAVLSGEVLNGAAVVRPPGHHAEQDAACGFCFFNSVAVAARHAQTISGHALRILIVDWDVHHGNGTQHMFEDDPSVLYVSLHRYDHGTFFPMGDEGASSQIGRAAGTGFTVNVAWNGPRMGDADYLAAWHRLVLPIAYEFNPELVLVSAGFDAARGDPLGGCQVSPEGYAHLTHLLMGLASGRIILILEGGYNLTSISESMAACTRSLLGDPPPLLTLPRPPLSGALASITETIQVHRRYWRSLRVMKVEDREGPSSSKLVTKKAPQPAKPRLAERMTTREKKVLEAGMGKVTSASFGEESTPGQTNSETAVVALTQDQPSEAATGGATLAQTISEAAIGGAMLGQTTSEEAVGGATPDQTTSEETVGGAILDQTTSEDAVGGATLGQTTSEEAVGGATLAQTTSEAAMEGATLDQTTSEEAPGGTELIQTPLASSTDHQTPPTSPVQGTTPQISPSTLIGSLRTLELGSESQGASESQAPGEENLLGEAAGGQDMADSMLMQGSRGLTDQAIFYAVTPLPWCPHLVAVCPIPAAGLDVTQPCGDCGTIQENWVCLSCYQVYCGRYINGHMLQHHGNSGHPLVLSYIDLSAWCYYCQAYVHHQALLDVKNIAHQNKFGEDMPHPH
Test: HDAC6 enzyme activity inhibition assay (HDAC Fluorimetric Drug Discovery Kit)
Format: biochemical
Settings: for HDAC6 selectivity (fold): HDAC6 over HDAC1; for IC50: human recombinant HDAC6, same protocol as HDAC1, read-out: HDAC6
Protocol: In order to examine the HDAC6 selectivity of the compounds of formula I of the present invention by HDAC1 and HDAC6 enzymatic activity inhibition assays, an experiment was performed using a conventional substance as a control.
HDAC enzyme activity was measured using a HDAC Fluorimetric Drug Discovery Kit (BML-AK511, 516, Enzo Life Science). For the HDAC1 enzyme activity test, human recombinant HDAC1 (BML-SE456) was used as an enzyme source, and Fluor de Lys®-“SIRT1 (BNL-KI177) was used as a substrate. A 5-fold dilution of the compound was seeded into a 96-well plate, and then 0.3 μg of the enzyme and 10 μM of the substrate were added to each well of the plate and allowed to react at 30° C. for 60 minutes. Then, Fluor de Lys®-Developer II (BML-KI176) was added thereto and allowed to react for 30 minutes, after which the fluorescence value (Ex 360, Em 460) was measured using a multi-plate reader (Flexstation 3, Molecular Device). The HDAC6 enzyme was tested using human recombinant HDAC6 (382180) (Calbiochem) according to the same protocol as the HDAC1 enzyme activity test method. Based on the resulting values, each IC5, value was calculated using GraphPad Prism4.0 program.

| HDAC6 selectivity (fold) | IC50 | SMILES |
| --- | --- | --- |
| 12 fold | 829 nM | C[C@@H]1CN(Cc2ccccc2)C[C@H](C)N1Cc1ccc(N(Cc2ccc(-c3nnc(C(F)F)o3)cc2F)C(=O)N2CCS(=O)(=O)CC2)cc1 [Compound 21925] |
| 120 fold | 83 nM | O=C(N1CCS(=O)(=O)CC1)N(Cc1ccc(-c2nnc(C(F)F)o2)cc1)c1ccc(-c2ccccc2)cc1 [Compound 21486, N-([1,1′-biphenyl]-4-yl)-N-(4-(5-(difluoromethyl)-1,3,4-oxadiazol-2-yl)benzyl)thiomorpholine-4-carboxamide 1,1-dioxide] |
| 377 fold | 26.5 nM | CN1CCCN(C(=O)N(Cc2ccc(-c3nnc(C(F)F)o3)cc2F)c2ccccc2)CC1 [Compound 21423, N-(4-(5-(difluoromethyl)-1,3,4-oxadiazol-2-yl)-2-fluorobenzyl)-4-methyl-N-phenyl-1,4-diazepane-1-carboxamide] |
| 400 fold | 25 nM | O=C(N1CCS(=O)(=O)CC1)N(Cc1ccc(-c2nnc(C(F)F)o2)cc1F)c1ccc(-c2cccnc2)cc1 [Compound 21518, N-(4-(5-(difluoromethyl)-1,3,4-oxadiazol-2-yl)-2-fluorobenzyl)-N-(4-(pyridin-3-yl)phenyl)thiomorpholine-4-carboxamide 1,1-dioxide] |
| 74 fold | 135 nM | CN(C)[C@H]1CCN(C(=O)N(Cc2ccc(-c3nnc(C(F)(F)F)o3)cc2F)c2cccc(Cl)c2F)C1 [Compound 21644, (S)—N-(3-chloro-2-fluorophenyl)-3-(dimethylamino)-N-(2-fluoro-4-(5-(trifluoromethyl)-1,3,4-oxadiazol-2-yl)benzyl)pyrrolidine-1-carboxamide] |
| 352 fold | 28 nM | CN(C)[C@H]1CCN(C(=O)N(Cc2ccc(-c3nnc(C(F)F)o3)cc2F)c2cccc(Cl)c2F)C1 [Compound 21643, (S)—N-(3-chloro-2-fluorophenyl)-N-(4-(5-(difluoromethyl)-1,3,4-oxadiazol-2-yl)-2-fluorobenzyl)-3-(dimethylamino)pyrrolidine-1-carboxamide] |
| 65 fold | 155 nM | CN1CCN(C(=O)N(CCc2ccccc2)Cc2ccc(-c3nnc(C(F)F)o3)cc2F)CC1 [Compound 21554, N-(4-(5-(difluoromethyl)-1,3,4-oxadiazol-2-yl)-2-fluorobenzyl)-4-methyl-N-phenethylpiperazine-1-carboxamide] |
| 14 fold | 697 nM | CCN(CC)c1ccc(N(Cc2ccc(-c3nnc(C(F)F)o3)cc2F)C(=O)N2CCS(=O)(=O)CC2)cc1 [Compound 21553] |
| 15 fold | 684 nM | O=C(N1CCOCC1)N(Cc1ccc(-c2nnc(C(F)F)o2)cc1F)CC12CC3CC(CC(C3)C1)C2 [Compound 21932, N-(((3r,5r,7r)-adamantan-1-yl)methyl)-N-(4-(5-(difluoromethyl)-1,3,4-oxadiazol-2-yl)-2-fluorobenzyl)morpholine-4-carboxamide] |
| 75 fold | 134 nM | O=C(N1CCOCC1)N(Cc1ccc(-c2nnc(C(F)(F)F)o2)cc1)c1ccccc1F [Compound 21428, N-(2-fluorophenyl)-N-(4-(5-(trifluoromethyl)-1,3,4-oxadiazol-2-yl)benzyl)morpholine-4-carboxamide] |
| 1 fold | – | CC(C)(C)c1ccc(N(Cc2ccc(-c3nnc(C(F)(F)F)o3)cc2F)C(=O)N2CCS(=O)(=O)CC2)cc1 [Compound 21460, N-(4-(tert-butyl)phenyl)-N-(2-fluoro-4-(5-(trifluoromethyl)-1,3,4-oxadiazol-2-yl)benzyl)thiomorpholine-4-carboxamide 1,1-dioxide] |
| 18 fold | 565 nM | Cn1ccc2cc(-c3ccc(N(Cc4ccc(-c5nnc(C(F)(F)F)o5)cc4F)C(=O)N4CCS(=O)(=O)CC4)cc3)ccc21 [Compound 21521, N-(2-fluoro-4-(5-(trifluoromethyl)-1,3,4-oxadiazol-2-yl)benzyl)-N-(4-(1-methyl-1H-indol-5-yl)phenyl)thiomorpholine-4-carboxamide 1,1-dioxide] |
| 9 fold | 1100 nM | CC(C)(C)OC(=O)N1CCN(C(=O)N(Cc2ccc(-c3nnc(C(F)(F)F)o3)cc2)c2ccccc2)CC1 [Compound 21352, Tert-butyl 4-(phenyl(4-(5-(trifluoromethyl)-1,3,4-oxadiazol-2-yl)benzyl)carbamoyl)piperazine-1-carboxylate] |
| 12 fold | 836 nM | O=C(NC1CCC1)N(Cc1ccc(-c2nnc(C(F)(F)F)o2)cc1)c1ccccc1 [Compound 21340, 3-Cyclobutyl-1-phenyl-1-(4-(5-(trifluoromethyl)-1,3,4-oxadiazol-2-yl)benzyl)urea] |
| 45 fold | 222 nM | CCCN(C)C(=O)N(Cc1ccc(-c2nnc(C(F)(F)F)o2)cc1)c1ccccc1 [Compound 21402, 1-Methyl-3-phenyl-1-propyl-3-(4-(5-(trifluoromethyl)-1,3,4-oxadiazol-2-yl)benzyl)urea] |
| 28 fold | 356 nM | C[C@@H]1CN(Cc2ccc(N(Cc3ccc(-c4nnc(C(F)F)o4)cc3F)C(=O)N3CCS(=O)(=O)CC3)cc2)C[C@H](C)N1Cc1ccccc1 [Compound 21926] |
| 115 fold | 87 nM | Cc1ccc(N(Cc2ccc(-c3nnc(C(F)F)o3)cc2)C(=O)N2CCS(=O)(=O)CC2)cc1 [Compound 21446, N-(4-(5-(difluoromethyl)-1,3,4-oxadiazol-2-yl)benzyl)-N-(p-tolyl)thiomorpholine-4-carboxamide 1,1-dioxide] |
| 77 fold | 130 nM | COc1ccccc1N(Cc1ccc(-c2nnc(C(F)F)o2)cc1)C(=O)N1CCS(=O)(=O)CC1 [Compound 21474, N-(4-(5-(difluoromethyl)-1,3,4-oxadiazol-2-yl)benzyl)-N-(2-methoxyphenyl)thiomorpholine-4-carboxamide 1,1-dioxide] |
| 357 fold | 28 nM | O=C(N1CCOCC1)N(Cc1ccc(-c2nnc(C(F)F)o2)cc1F)c1ccccc1 [Compound 21337, N-(4-(5-(difluoromethyl)-1,3,4-oxadiazol-2-yl)-2-fluorobenzyl)-N-phenylmorpholine-4-carboxamide] |
| 20 fold | 489 nM | O=C(N1CCOCC1)N(Cc1ccc(-c2nnc(C(F)(F)F)o2)cc1)c1ccc(F)cc1 [Compound 21426, N-(4-fluorophenyl)-N-(4-(5-(trifluoromethyl)-1,3,4-oxadiazol-2-yl)benzyl)morpholine-4-carboxamide] |
| 88 fold | 114 nM | O=C(N1CCOCC1)N(Cc1ccc(-c2nnc(C(F)F)o2)nc1)c1ccc(F)c(Cl)c1 [Compound 21766, N-(3-Chloro-4-fluorophenyl)-N-((6-(5-(difluoromethyl)-1,3,4-oxadiazol-2-yl)pyridin-3-yl)methyl)morpholine-4-carboxamide] |

| SMILES | HDAC6 selectivity (fold) | IC50 |
| --- | --- | --- |
| CCN(CCN(C)C)C(=O)N(Cc1ccc(-c2nnc(C(F)F)o2)cc1)c1ccccc1 [Compound 21578, 1-(4-(5-(Difluoromethyl)-1,3,4-oxadiazol-2-yl)benzyl)-3-(2-(dimethylamino)ethyl)-3-ethyl-1-phenylurea] | 233 fold | 43 nM |
